PMC10533412, “Phosphoantigens glue butyrophilin 3A1 and 2A1 to activate Vγ9Vδ2 T cells” (Nature, 2023)
Where “and” joins values, the source holds several entries; their conditions need not be identical. Identical values can stand only once.

System: BTN2A−/− MIA PaCa-2 (BTN2A1/BTN2A2 KO) cells
Test: Cell killing assay with BTN2A−/− MIA PaCa-2 (BTN2A1/BTN2A2 KO) cells expressing BTN2A1/BTN2A2 variants
Settings: for cell killing, Means, Fig. 6e: N 4; for cell killing, single replicate, Fig. 6e: listed as HMBPP
[1] = 0.1 μM, cells expressing 2A1 (full)
[2] = 0.1 μM, cells expressing 2A2 B30.2 W374R/M506T (with 2A1 other segments)
[3] = 0.1 μM, cells expressing 2A2 W374R/M506T (with 2A1 EC)
[4] = 0.1 μM, cells expressing 2A2 W374R/M506T (wtih 2A1 JM)
[5] = 0.1 μM, cells expressing 2A2 W374R/M506T
[6] = 1 μM, cells expressing 2A1 (full)
[7] = 1 μM, cells expressing 2A2 B30.2 W374R/M506T (with 2A1 other segments)
[8] = 1 μM, cells expressing 2A2 W374R/M506T (with 2A1 EC)
[9] = 1 μM, cells expressing 2A2 W374R/M506T (wtih 2A1 JM)
[10] = 1 μM, cells expressing 2A2 W374R/M506T
[11] = 10 μM, cells expressing 2A1 (full)
[12] = 10 μM, cells expressing 2A2 B30.2 W374R/M506T (with 2A1 other segments)
[13] = 10 μM, cells expressing 2A2 W374R/M506T (with 2A1 EC)
[14] = 10 μM, cells expressing 2A2 W374R/M506T (wtih 2A1 JM)
[15] = 10 μM, cells expressing 2A2 W374R/M506T
[16] = 2A1 WT, source data Ext. Fig. 3c
[17] = 2A1 ∆C, source data Ext. Fig. 3c
[18] = Ext. Fig. 6d, cells expressing 2A1 WT, three-parameter fit
[19] = Ext. Fig. 6d, cells expressing 2A2 G352Y354QR/M506T/W374R, three-parameter fit
[20] = Ext. Fig. 6d, cells expressing 2A2 G352Y354QR, three-parameter fit
[21] = Ext. Fig. 6d, cells expressing 2A2 M506T, three-parameter fit

Description: MIA PaCa-2 cells were infected with lentivirus bearing luciferase transgene. Luciferase-positive cells were plated at 5.0 × 10^3 cells per well in 384-well plates 1 day before transfection. All plasmids were transfected into BTN2A^−/− MIA PaCa-2 (BTN2A1/BTN2A2 KO) cells using Lipofectamine 2000 reagent. […] Stable-lite luciferase (Vazyme) was added to each well and the luciferase signal was immediately measured by using the PerkinElmer EnVision microplate reader.
Percentage of lysis was calculated using the following equation: percentage of specific lysis = (maximum luciferase − experimental luciferase)/maximum luciferase × 100.

C/C(=C\COP(=O)(O)OP(=O)(O)O)CO [Compound 1, (E)-4-hydroxy-3-methylbut-2-en-1-yl diphosphate]
cell killing, Means, Fig. 6e (0.1 μM, NT cells): 15.31
cell killing, single replicate, Fig. 6e (0.1 μM, NT cells): 16.9534 and 12.1556 and 17.488 and 14.6256
cell killing, Means, Fig. 6e [1]: 43.2
cell killing, single replicate, Fig. 6e [1]: 41.0547 and 41.9242 and 44.3091 and 45.5217
cell killing, Means, Fig. 6e [2]: 37.63
cell killing, single replicate, Fig. 6e [2]: 30.7526 and 48.9339 and 41.228 and 29.5964
cell killing, Means, Fig. 6e [3]: 10.65
cell killing, single replicate, Fig. 6e [3]: 10.0494 and 11.5088 and 9.171 and 11.8833
cell killing, Means, Fig. 6e [4]: 21.79
cell killing, single replicate, Fig. 6e [4]: 18.9096 and 21.2355 and 31.0049 and 16.0148
cell killing, Means, Fig. 6e [5]: 6.989
cell killing, single replicate, Fig. 6e [5]: 8.189 and 6.668 and 2.002 and 11.0964
cell killing, Means, Fig. 6e (1 μM, NT cells): 19.83
cell killing, single replicate, Fig. 6e (1 μM, NT cells): 17.72 and 22.5709 and 17.5879 and 21.4385
cell killing, Means, Fig. 6e [6]: 47.49
cell killing, single replicate, Fig. 6e [6]: 44.8999 and 44.0198 and 51.2118 and 49.8148
cell killing, Means, Fig. 6e [7]: 47.88
cell killing, single replicate, Fig. 6e [7]: 42.711 and 50.2729 and 52.3554 and 46.1815
cell killing, Means, Fig. 6e [8]: 18.17
cell killing, single replicate, Fig. 6e [8]: 13.1292 and 15.284 and 20.3978 and 23.864
cell killing, Means, Fig. 6e [9]: 29.03
cell killing, single replicate, Fig. 6e [9]: 27.7855 and 29.0017 and 26.4668 and 32.8608
cell killing, Means, Fig. 6e [10]: 15.67
cell killing, single replicate, Fig. 6e [10]: 11.4295 and 17.9078 and 14.2342 and 19.1099
cell killing, Means, Fig. 6e (10 μM, NT cells): 24.11
cell killing, single replicate, Fig. 6e (10 μM, NT cells): 29.5378 and 18.9356 and 23.5884 and 24.3846
cell killing, Means, Fig. 6e [11]: 46.91
cell killing, single replicate, Fig. 6e [11]: 43.2704 and 47.0695 and 47.7293 and 49.5621
cell killing, Means, Fig. 6e [12]: 46.58
cell killing, single replicate, Fig. 6e [12]: 39.3517 and 47.3098 and 45.3387 and 54.323
cell killing, Means, Fig. 6e [13]: 29.48
cell killing, single replicate, Fig. 6e [13]: 34.2513 and 25.8478 and 33.2665 and 24.5352
cell killing, Means, Fig. 6e [14]: 29.83
cell killing, single replicate, Fig. 6e [14]: 29.1476 and 34.1243 and 24.0842 and 31.9573
cell killing, Means, Fig. 6e [15]: 28.16
cell killing, single replicate, Fig. 6e [15]: 27.8321 and 21.0649 and 28.437 and 35.311
Bottom, best-fit value, log(agonist) vs. response (three parameters) [16]: 30.67
LogEC50, best-fit value [16]: -7.891
Span (best-fit value) [16]: 32.29
Top, best-fit value, log(agonist) vs. response (three parameters) [16]: 62.96
Bottom, best-fit value, log(agonist) vs. response (three parameters) [17]: 18.53
LogEC50, best-fit value [17]: -4.358
Span (best-fit value) [17]: 32.38
Top, best-fit value, log(agonist) vs. response (three parameters) [17]: 50.91
Bottom (best-fit value) [18]: 37.79
Span (best-fit value) [18]: 24.09
Top (best-fit value) [18]: 61.87
Bottom (best-fit value) [19]: 32.14
Span (best-fit value) [19]: 22.27
Top (best-fit value) [19]: 54.4
Bottom (best-fit value) [20]: 19.82
Span (best-fit value) [20]: 7.278
Top (best-fit value) [20]: 27.1
Bottom (best-fit value) [21]: 17.84
Span (best-fit value) [21]: 32.36
